In patent US7772408B1, “Substituted 5-alkoxypsoralens as inhibitors of potassium channel activity in lymphocytes and other cells” (The Regents of the University of California, priority 2002, dated 2010):
Where no end group is shown, it is not given here.

How the values were obtained:
Nav1.2 = molecular target: T1, Nav1.2 (Mus musculus, UniProt B1AWN6); assay: Whole-cell patch-clamp, sodium channel Nav1.2 (N1E-115); format: cell-based; settings: ratio Kd Nav1.2/Kd Kv1.3
T1 construct: endogenous in cells

LogP determined by HPLC = format: physicochemical
Kv1.3 [1] = molecular target: Kv1.3 (UniProt P16390); assay: Whole-cell patch-clamp on a cell line stably expressing Kv1.3; format: cell-based; parameters: Kd Kv1.3; other: whole-cell patch-clamp, cell line stably expressing Kv1.3; Kd Kv1.3; mean ± S.D; Kd Kv1.3 (cloned); other: whole-cell patch-clamp, three to five concentrations, n = 3; settings: whole-cell patch-clamp, cell line stably expressing Kv1.3; mean ± S.D.
Procedure: (§1) Electrophysiology. All experiments were conducted in the whole-cell configuration of the patch-clamp technique with a holding potential of −80 mV on a cell line stably expressing Kv1.3. Pipette resistances averaged 2.0 MΩ, and series resistance compensation of 80% was employed when currents exceeded 2 nA. Kv1.3 currents were elicited by repeated 200 ms or 2 sec pulses from −80 mV to 40 mV, applied at intervals of 30 or 60 s.

Kv1.3 [2] = molecular target: Kv1.3 (UniProt P16390); assay: as above; format: cell-based; settings: FIG. 1A / 1B
Procedure: as §1

potassium channels = settings: background statement; read-out: Kd, block of potassium channels; cited from earlier work
[3] = system: delayed-type hypersensitivity (DTH) response; settings: mini-pigs, cited from earlier work

T1 sequence (B1AWN6 whole entry): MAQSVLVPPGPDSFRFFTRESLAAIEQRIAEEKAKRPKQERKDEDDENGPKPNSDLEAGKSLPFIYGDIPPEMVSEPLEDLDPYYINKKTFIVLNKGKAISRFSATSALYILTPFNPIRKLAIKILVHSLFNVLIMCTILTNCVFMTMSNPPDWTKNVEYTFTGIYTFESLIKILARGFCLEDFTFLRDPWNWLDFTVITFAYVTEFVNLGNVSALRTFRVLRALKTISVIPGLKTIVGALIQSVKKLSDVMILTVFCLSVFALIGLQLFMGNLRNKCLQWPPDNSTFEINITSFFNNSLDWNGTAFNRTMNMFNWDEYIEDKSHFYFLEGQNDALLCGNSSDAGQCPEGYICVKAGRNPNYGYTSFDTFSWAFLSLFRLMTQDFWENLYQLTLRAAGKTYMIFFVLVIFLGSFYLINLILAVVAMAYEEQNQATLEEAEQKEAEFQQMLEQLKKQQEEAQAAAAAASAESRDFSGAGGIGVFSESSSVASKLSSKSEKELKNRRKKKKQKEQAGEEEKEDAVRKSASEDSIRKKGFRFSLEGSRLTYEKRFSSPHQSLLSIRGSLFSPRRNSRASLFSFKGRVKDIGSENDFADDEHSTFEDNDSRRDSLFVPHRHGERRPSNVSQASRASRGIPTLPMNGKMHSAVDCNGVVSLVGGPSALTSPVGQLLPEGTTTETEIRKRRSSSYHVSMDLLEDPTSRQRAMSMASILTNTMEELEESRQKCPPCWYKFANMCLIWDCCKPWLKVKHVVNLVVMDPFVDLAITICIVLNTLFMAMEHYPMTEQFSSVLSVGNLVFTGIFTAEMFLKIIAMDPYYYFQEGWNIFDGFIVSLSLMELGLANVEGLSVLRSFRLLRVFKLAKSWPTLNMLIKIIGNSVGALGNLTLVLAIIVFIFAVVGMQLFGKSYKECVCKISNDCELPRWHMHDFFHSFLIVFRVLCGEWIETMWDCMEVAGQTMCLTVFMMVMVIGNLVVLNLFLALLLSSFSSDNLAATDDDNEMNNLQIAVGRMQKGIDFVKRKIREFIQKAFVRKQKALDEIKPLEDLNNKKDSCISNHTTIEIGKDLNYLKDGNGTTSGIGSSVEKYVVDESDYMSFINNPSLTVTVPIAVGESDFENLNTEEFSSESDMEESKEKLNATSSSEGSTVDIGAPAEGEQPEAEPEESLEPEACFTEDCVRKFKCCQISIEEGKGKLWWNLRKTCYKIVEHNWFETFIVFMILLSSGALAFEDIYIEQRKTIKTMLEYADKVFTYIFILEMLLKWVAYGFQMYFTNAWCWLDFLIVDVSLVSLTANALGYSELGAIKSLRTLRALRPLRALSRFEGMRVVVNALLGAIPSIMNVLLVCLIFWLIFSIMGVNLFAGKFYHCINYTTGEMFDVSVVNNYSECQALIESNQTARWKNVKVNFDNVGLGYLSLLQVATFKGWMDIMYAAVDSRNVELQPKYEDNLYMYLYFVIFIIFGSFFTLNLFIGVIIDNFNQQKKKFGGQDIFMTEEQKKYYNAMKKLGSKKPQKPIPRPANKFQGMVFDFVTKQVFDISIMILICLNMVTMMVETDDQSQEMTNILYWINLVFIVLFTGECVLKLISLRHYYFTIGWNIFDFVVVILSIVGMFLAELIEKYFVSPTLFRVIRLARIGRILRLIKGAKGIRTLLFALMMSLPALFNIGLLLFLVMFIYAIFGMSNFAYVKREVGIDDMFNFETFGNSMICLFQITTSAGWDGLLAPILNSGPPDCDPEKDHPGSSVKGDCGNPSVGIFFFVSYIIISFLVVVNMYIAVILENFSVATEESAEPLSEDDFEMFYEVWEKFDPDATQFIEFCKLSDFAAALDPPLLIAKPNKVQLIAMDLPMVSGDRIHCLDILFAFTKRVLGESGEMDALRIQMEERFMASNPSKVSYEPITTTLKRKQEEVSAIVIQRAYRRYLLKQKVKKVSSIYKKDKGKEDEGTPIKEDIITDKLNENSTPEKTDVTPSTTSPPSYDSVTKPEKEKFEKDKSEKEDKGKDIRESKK

Compound | S (selectivity over Nav1.2), S = Kd Nav1.2/Kd Kv1.3 (Nav1.2) | chromatographic logP (LogP determined by HPLC) | melting point [°C] | Kd (Kv1.3 [1]) [µM] | inhibition of Kv1.3 current (Kv1.3 [2]) | Kd (potassium channels) [µM] | suppression of primary DTH response [3] | suppression of secondary DTH response [3]
O=c1ccc2c(OCCC3CCCCC3)c3ccoc3cc2o1 [J 23, 4-(2-Cyclohexylethoxy)-7H-furo[3,2-g][1]benzopyran-7-on] | 11 | 4.82 | 117 | 0.132 ± 0.033 |  |  |  | 
O=c1ccc2c(OCCCCc3ccccc3)c3ccoc3cc2o1 [J 19 (Psora 4), 4-(4-Phenylbutoxy)-7H-furo[3,2-g][1]benzopyran-7-one] |  | 4.33 |  |  |  |  |  | 
O=c1ccc2c(OCC3CCCCC3)c3ccoc3cc2o1 [J 14, 4-Cyclohexylmethoxy-7H-furo[3,2-g][1]benzopyran-7-on] | 48 | 4.41 | 153.5 | 0.138 ± 0.017 |  |  |  | 
O=c1ccc2c(OCCCc3ccccc3)c3ccoc3cc2o1 [J 15, 4-(3-Phenylpropoxy)-7H-furo[3,2-g][1]benzopyran-7-one] | 397 | 3.97 | 109 | 0.0063 ± 0.001 | dose-dependent inhibition |  |  | 
O=c1ccc2c(OCCCCCc3ccccc3)c3ccoc3cc2o1 [J 22, 4-(5-Phenylpentoxy)-7H-furo[3,2-g][1]benzopyran-7-one] | 262 | 4.71 | 94.5 | 0.0061 ± 0.0007 |  |  |  | 
O=c1ccc2c(OCc3ccccc3)c3ccoc3cc2o1 [5-BOP, 4-Benzyloxy-7H-furo[3,2-g][1]benzopyran-7-one] | 43 | 3.25 | 136 | 0.35 ± 0.072 |  |  |  | 
O=c1ccc2c(OC/C=C/c3ccccc3)c3ccoc3cc2o1 [J 16, trans-4-(3-Phenyl-2-propenyloxy)-7H-furo[3,2-g][1]benzopyran-7-on] | 41 | 3.79 | 140 | 0.172 ± 0.037 |  |  |  | 
O=c1ccc2c(OC(c3ccccc3)c3ccccc3)c3ccoc3cc2o1 [J 17, 4-Diphenylmethoxy-7H-furo[3,2-g][1]benzopyran-7-on] | 38 | 4.12 | 173 | 0.068 ± 0.012 |  |  |  | 
O=c1ccc2c(OCCCC3CCCCC3)c3ccoc3cc2o1 [J 21, 4-(3-Cyclohexylpropoxy)-7H-furo[3,2-g][1]benzopyran-7-on] | 8 | 5.34 | 115 | 0.144 ± 0.043 |  |  |  | 
CC(COc1c2ccoc2cc2oc(=O)ccc12)c1ccccc1 (stereo not drawn) [J 12, R,S-4-(2-Phenylpropoxy)-7H-furo[3,2-g][1]benzopyran-7-on] | 25 | 3.87 | 141.5 | 0.072 ± 0.012 |  |  |  | 
COc1c2ccoc2cc2oc(=O)ccc12 [5-MOP, 5-Methoxypsoralen] |  |  |  |  |  | 100 |  | 
MgTX: Kv1.3 blocker (TIINVKCTSPKQCLPPCKAQFGQSAGAKCMNGKCKCYPH; ends and bridges not checked; cysteine pairing not given here; UniProt P40755 1-39, looked up) |  |  |  |  |  |  | effectively suppress | much less effective
O=c1ccc2c(OCc3ccc(-c4ccccc4)cc3)c3ccoc3cc2o1 [J 20, 5-Biphenylmethoxypsoralen] | 286 | 4.4 | 187 | 0.0035 ± 0.0005 |  |  |  | 
O=c1ccc2c(OCCc3ccccc3)c3ccoc3cc2o1 [J 09, 4-(2-Phenylethoxy)-7H-furo[3,2-g][1]benzopyran-7-one] | 41 | 3.55 | 154.5 | 0.169 ± 0.016 |  |  |  | 
C=C1C[C@@]2(O)[C@@H]3CC[C@@]4(C)[C@@H]5C=CC(=O)OC[C@]5(C(C)OC(C)=O)[C@@H](OC(C)=O)[C@@H](OC(C)=O)[C@@H]4[C@@]3(C)[C@H](OC(C)=O)[C@H](OC(C)=O)[C@@]2(C)C2(C(=O)OC)O[C@H]12 (stereo partly drawn) [correolide] |  |  |  |  |  |  | effectively suppress | much less effective
